Source: ChEMBL document CHEMBL1201862, “PubChem BioAssay data set” (2004)
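Cultured in 96-well plates, cells were exposed to test compound for 48 hours across five concentrations. At the GI50, growth is halved.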 Active and inactive are the calls of the source. Cut-off read from the data, not from the text of the source: active = GI50 up to about 1.1 µM and inactive = higher.

How the values were obtained:
Experiment in all cases: NCI-60 cell line screen, 48 h
SF-295 = test system: SF-295
NCI-H460 = test system: NCI-H460
CCRF-CEM = test system: CCRF-CEM
HOP-62 = test system: HOP-62
UO-31 = test system: UO-31
PC-3 = test system: PC-3
TK-10 = test system: TK-10
SK-MEL-5 = test system: SK-MEL-5
COLO 205 = test system: COLO 205
MDA-N = test system: MDA-N
MDA-MB-231 = test system: MDA-MB-231
HCT-15 = test system: HCT-15
SR = test system: SR
HCC 2998 = test system: HCC 2998
UACC-257 = test system: UACC-257
Hs-578T = test system: Hs-578T
BT-549 = test system: BT-549
KM12 = test system: KM12
HL-60 = test system: HL-60

| SMILES | GI50 (SF-295) | GI50 (NCI-H460) | GI50 (CCRF-CEM) | GI50 (HOP-62) | GI50 (UO-31) | GI50 (PC-3) | GI50 (TK-10) | GI50 (SK-MEL-5) | GI50 (COLO 205) | GI50 (MDA-N) | GI50 (MDA-MB-231) | GI50 (HCT-15) [µM] | GI50 (SR) | GI50 (HCC 2998) | GI50 (UACC-257) | GI50 (Hs-578T) | GI50 (BT-549) | GI50 (KM12) | GI50 (HL-60) |
| --- | --- | --- | --- | --- | --- | --- | --- | --- | --- | --- | --- | --- | --- | --- | --- | --- | --- | --- | --- |
| CC(C)(C)C(=O)Nc1cccc(-c2ccc[nH]2)n1 | 99.8 µM (inactive) | > 96.8 µM (inactive) | > 100 µM (inactive) | > 100 µM (inactive) | > 96.8 µM (inactive) | > 100 µM (inactive) | > 100 µM (inactive) | 68.7 µM (inactive) | > 100 µM (inactive) | > 100 µM (inactive) | > 65 µM (inactive) | > 100 | 67.1 µM (inactive) | > 100 µM (inactive) | > 84.9 µM (inactive) | 22.7 µM (inactive) | > 100 µM (inactive) | > 100 µM (inactive) | – |
| Cc1ccc(C)c2c1CC(Cc1ccccc1C(=O)O)C2=O (stereo unspecified) | > 100 µM (inactive) | > 100 µM (inactive) | > 100 µM (inactive) | > 100 µM (inactive) | > 100 µM (inactive) | > 100 µM (inactive) | > 100 µM (inactive) | > 100 µM (inactive) | > 100 µM (inactive) | > 100 µM (inactive) | > 100 µM (inactive) | > 100 | – | > 100 µM (inactive) | > 100 µM (inactive) | > 100 µM (inactive) | > 100 µM (inactive) | > 100 µM (inactive) | > 100 µM (inactive) |
| O=C(CCc1cc(O)cc(O)c1)NCCc1ccc(O)c(O)c1 | > 100 µM (inactive) | > 100 µM (inactive) | 17.3 µM (inactive) | > 100 µM (inactive) | > 100 µM (inactive) | > 100 µM (inactive) | > 100 µM (inactive) | > 100 µM (inactive) | > 100 µM (inactive) | 36.7 µM (inactive) | > 100 µM (inactive) | > 100 | > 100 µM (inactive) | > 100 µM (inactive) | > 100 µM (inactive) | > 100 µM (inactive) | > 100 µM (inactive) | > 100 µM (inactive) | – |
| COC(=O)c1ccccc1C1CN=NC12Cc1cc(C)c(C)cc1C2=O (stereo unspecified) | 37.5 µM (inactive) | 44.1 µM (inactive) | 24.1 µM (inactive) | 78 µM (inactive) | 30.3 µM (inactive) | 32.1 µM (inactive) | 25.8 µM (inactive) | 18.7 µM (inactive) | 49.9 µM (inactive) | 33.7 µM (inactive) | 27.2 µM (inactive) | 32.7 | – | 55.2 µM (inactive) | 14.5 µM (inactive) | 45.5 µM (inactive) | 65.9 µM (inactive) | 29.7 µM (inactive) | 21.8 µM (inactive) |
| CCOC(=O)c1cc(=O)oc2c1N(C)c1ncccc1N2 | > 100 µM (inactive) | > 100 µM (inactive) | – | > 100 µM (inactive) | 50.9 µM (inactive) | > 100 µM (inactive) | > 100 µM (inactive) | – | > 100 µM (inactive) | > 100 µM (inactive) | 69.5 µM (inactive) | > 100 | 63.4 µM (inactive) | > 100 µM (inactive) | > 100 µM (inactive) | > 100 µM (inactive) | > 100 µM (inactive) | > 100 µM (inactive) | – |
| CCOC(=O)/C=C(\C(=O)OCC)n1cc(Cl)c(=O)n(CC(=O)OCC)c1=O | > 43.5 µM (inactive) | 23.4 µM (inactive) | 5.09 µM (inactive) | 18 µM (inactive) | 1.87 µM (inactive) | 14.5 µM (inactive) | 1.89 µM (inactive) | 15.7 µM (inactive) | 0.697 µM (active) | 11.3 µM (inactive) | 16 µM (inactive) | 3.17 | – | 21.1 µM (inactive) | 2.96 µM (inactive) | 23.7 µM (inactive) | 18 µM (inactive) | 18.2 µM (inactive) | 2.81 µM (inactive) |
